Data: US20090227619A1, “Harmine derivatives, intermediates used in their preparations, preparation processes and use therefo” (priority 2003, published 2009)
Like-named read-outs stand apart in the source and are kept apart here.

Assays:
HepG2 = test: In vitro cytotoxicity, IC50 by MTT method, HepG2; type: cell-based, human
Experimental: (§1) Culture medium powder RPMI1640 was dissolved in a proper amount of tri-distilled water according to the instruction of the product. […] It was the basic culture solution. The complete culture solution was added with FBS having a final concentration of 10%, 100 U/ml penicillin and 100 µg/ml streptomycin. The solution was fully stirred by a magnetic blender, and the pH of the solution was adjusted to 6.8-7.0. The volume was kept constant. After being filtered and disinfected, the solution was kept into several containers which were sealed and stored at 4° C.
(§2) The cells were placed in a culture dish followed by the addition of complete culture liquid RPMI1640 and then cultured in a incubator comprising 5% CO2 at 37° C. In the exponential growth phase, the cells grew vigorously. If the culture liquid became yellow, the liquid should be replaced instantly.
(§3) The cells, at a concentration of 10^5/ml, were inoculated at a 96-pore culture plate. In each pore, 100 μl cells were inoculated. The cells were placed in a CO2 incubator until the cells were in the logarithmic growth phase. The samples to be tested were added according to the preset concentration gradient. For each gradient, the test was conducted at least three times. An equivalent amount of solvent for dissolving the samples was added in the control group. After 48 h of culture, each pore was added 20 μl MTT (5 mg/ml). The cells were cultured at 37° C. for 4 h. After the supernatant was carefully removed, 100 μl DMSO was added in each pore. The plate was agitated for about 10 minutes such that the precipitates were dissolved. After that, OD value was identified with a Microplate Reader at the wavelength of 490 nm. The survival rate of the cells at various concentrations was calculated according to the following formula:
(§4) Survival rate %=average OD value of the sample group/average OD value of the control group×100%
(§5) Plots of log survival rate of the cells vs. concentration of the medicament were constructed, and the IC50 value of each sample was calculated according to graphing methods.

PLA-801 = test: In vitro cytotoxicity, IC50 by MTT method, PLA-801; type: cell-based
Experimental: as §1, §2, §3, §4, §5

Bel-7402 = test: In vitro cytotoxicity, IC50 by MTT method, Bel-7402; type: cell-based
Experimental: as §1, §2, §3, §4, §5

BGC-823 = test: In vitro cytotoxicity, IC50 by MTT method, BGC-823; type: cell-based
Experimental: as §1, §2, §3, §4, §5

Hela = test: In vitro cytotoxicity, IC50 by MTT method, Hela; type: cell-based
Experimental: as §1, §2, §3, §4, §5

Lovo = test: In vitro cytotoxicity, IC50 by MTT method, Lovo; type: cell-based
Experimental: as §1, §2, §3, §4, §5

NIH3T3 = test: In vitro cytotoxicity, IC50 by MTT method, NIH3T3; type: cell-based
Experimental: as §1, §2, §3, §4, §5

Lewis lung cancer = conditions: Lewis lung cancer; for Body weight of the animals, end, First time / Body weight of the animals, end, Second time: ip × 10qd;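 on all read-outs here: mice implanted subcutaneously in the axilla with Lewis lung tumor cells, treated starting the following day, killed roughly three weeks after implantation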
S180 sarcoma = conditions: S180 sarcoma; for Body weight of the animals, beginning, First time / Body weight of the animals, end, First time / Inhibition rate, First time / Weight of the tumor X ± SD, First time / Body weight of the animals, beginning, Second time / Body weight of the animals, end, Second time / Inhibition rate, Second time: ip × 10qd
From the text: There was one group of 8 to 10 mice C57BL/6 and Kunming mice for the anti-tumor tests and two groups of mice for negative control.
(3) Sources of tumors: Lewis lung cancer cells and S180 sarcoma in mice, which were sub-cultured and maintained by Pharmacological Center of Shanghai Pharmaceutical Industrial Research Institute.
All samples were weighed and added a small amount of Tween-80 to facilitate dissolution during the experiment, and then 0.5% CMC-Na solution was gradually added to achieve the desired concentration. The volume for experiment was 0.5 ml/20 g mouse.
The medicaments were intraperitoneally administered once a day continuously for 10 days.
For the negative control group, a vehicle of the same volume was intraperitoneally administered once a day continuously for 10 days. For the positive control group, CTX was administered in the dosage of 30 mg/kg once a day continuously for 7 days.
In vivo anti-tumor subcutaneous vaccination in the axilla was employed. Wildly grown tumor source was taken under sterile conditions to form a cell suspension of about 1×10^7 ml by homogenization method. For a corresponding mouse host, the suspension was injected in the axilla in an amount of 0.2 ml/mouse. The next day, the medicaments were administered according to the design of the tests. About three weeks later, all the groups of animals were executed. The tumors were taken from the animals and weighed. The inhibition rate of tumors was calculated according to the following formula:
T: average tumor weight of treated group; C: average tumor weight of negative control group.

[1] = PLA-801 cell strain, read-out: IC50 PLA-801
[2] = Homo sapiens, HepG2, MTT, read-out: IC50
[3] = Homo sapiens, Bel-7402, BeI7402, MTT, read-out: IC50
[4] = Homo sapiens, BGC-823, BGC823, MTT, read-out: IC50
[5] = Homo sapiens, Hela, MTT, read-out: IC50
[6] = Homo sapiens, Lovo, MTT, read-out: IC50
[7] = Mus musculus, NIH3T3, MTT, read-out: IC50
[8] = Homo sapiens, HepG2 cell strain, read-out: IC50 HepG2
[9] = Homo sapiens, Bel-7402, Bel7402 cell strain, read-out: IC50 Bel7402
[10] = Homo sapiens, BGC-823, BGC823 cell strain, read-out: IC50 BGC823
[11] = Homo sapiens, Hela cell strain, read-out: IC50 Hela
[12] = Homo sapiens, Lovo cell strain, read-out: IC50 Lovo
[13] = Mus musculus, NIH3T3 cell strain, read-out: IC50 NIH3T3
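Wherever LD50 is given: acute toxicity in Kunming mice grouped by sex, one intraperitoneal dose at five graded levels in Tween-80 plus 0.5% CMC-Na, deaths monitored over two weeks.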

2,9-dibenzyl-3-ethoxycarbonyl-β-carbolinium bromate [Compound 86]
IC50 (HepG2; HepG2 cell strain, read-out: IC50 HepG2): 40 µM
IC50 (PLA-801; [1]): 10 µM
IC50 (Bel-7402; Bel7402 cell strain, read-out: IC50 Bel7402): 50 µM
IC50 (BGC-823; BGC823 cell strain, read-out: IC50 BGC823): 40 µM
IC50 (Hela; Hela cell strain, read-out: IC50 Hela): 30 µM
IC50 (Lovo; Lovo cell strain, read-out: IC50 Lovo): 20 µM
IC50 (NIH3T3; NIH3T3 cell strain, read-out: IC50 NIH3T3): 20 µM
LD50 (Kunming mice; 50% male 50% female mice, single i.p.): 65.7 mg/kg
LD50 (Kunming mice; mouse, in vivo, ip): 58.2 to 74.1 mg/kg
LD50 (Kunming mice; summary Table 34, present tests, mice i.p.): 65.7
Body weight of the animals, end, First time (Lewis lung cancer; Dosage 10 (mg/ml)): 24.5 g
Body weight of the animals, end, Second time (Lewis lung cancer; Dosage 10 (mg/ml)): 25.1 g
Body weight of the animals, beginning, First time (Lewis lung cancer; Dosage 10, ip × 10qd): 20.2 g
Inhibition rate, First time (Lewis lung cancer; Dosage 10, ip × 10qd): 34.98%
Weight of the tumor X ± SD, First time (Lewis lung cancer; Dosage 10, ip × 10qd): 1.58 ± 0.11 g
Body weight of the animals, beginning, Second time (Lewis lung cancer; Dosage 10, ip × 10qd): 19.1 g
Inhibition rate, Second time (Lewis lung cancer; Dosage 10, ip × 10qd): 37.20%
Weight of the tumor X ± SD, Second time (Lewis lung cancer; Dosage 10, ip × 10qd): 1.84 ± 0.17 g
Body weight of the animals, end, First time (Lewis lung cancer; Dosage 20 (mg/ml)): 25.2 g
Body weight of the animals, end, Second time (Lewis lung cancer; Dosage 20 (mg/ml)): 23.9 g
Body weight of the animals, beginning, First time (Lewis lung cancer; Dosage 20, ip × 10qd): 20.0 g
Inhibition rate, First time (Lewis lung cancer; Dosage 20, ip × 10qd): 41.56%
Weight of the tumor X ± SD, First time (Lewis lung cancer; Dosage 20, ip × 10qd): 1.42 ± 0.11 g
Body weight of the animals, beginning, Second time (Lewis lung cancer; Dosage 20, ip × 10qd): 18.7 g
Inhibition rate, Second time (Lewis lung cancer; Dosage 20, ip × 10qd): 45.05%
Weight of the tumor X ± SD, Second time (Lewis lung cancer; Dosage 20, ip × 10qd): 1.61 ± 0.17 g
Inhibition rate (%) Lewis cancer (Lewis lung cancer; comparison table 43, in vivo): 41.56%
Body weight of the animals, beginning, First time (S180 sarcoma; Dosage 10 (mg/ml)): 19.3 g
Body weight of the animals, end, First time (S180 sarcoma; Dosage 10 (mg/ml)): 24.5 g
Inhibition rate, First time (S180 sarcoma; Dosage 10 (mg/ml)): 31.09%
Weight of the tumor X ± SD, First time (S180 sarcoma; Dosage 10 (mg/ml)): 1.84 ± 0.16 g
Body weight of the animals, beginning, Second time (S180 sarcoma; Dosage 10 (mg/ml)): 18.7 g
Body weight of the animals, end, Second time (S180 sarcoma; Dosage 10 (mg/ml)): 24.9 g
Inhibition rate, Second time (S180 sarcoma; Dosage 10 (mg/ml)): 28.89%
Weight of the tumor X ± SD, Second time (S180 sarcoma; Dosage 10, ip × 10qd): 1.92 ± 0.20 g
Body weight of the animals, beginning, First time (S180 sarcoma; Dosage 20 (mg/ml)): 19.0 g
Body weight of the animals, end, First time (S180 sarcoma; Dosage 20 (mg/ml)): 23.7 g
Inhibition rate, First time (S180 sarcoma; Dosage 20 (mg/ml)): 38.95%
Weight of the tumor X ± SD, First time (S180 sarcoma; Dosage 20 (mg/ml)): 1.63 ± 0.26 g
Body weight of the animals, beginning, Second time (S180 sarcoma; Dosage 20 (mg/ml)): 18.9 g
Body weight of the animals, end, Second time (S180 sarcoma; Dosage 20 (mg/ml)): 24.4 g
Inhibition rate, Second time (S180 sarcoma; Dosage 20 (mg/ml)): 41.11%
Weight of the tumor X ± SD, Second time (S180 sarcoma; Dosage 20, ip × 10qd): 1.59 ± 0.17 g
Inhibition rate (%) S180 sarcomata (S180 sarcoma; comparison table 43, in vivo): 41.11%

CCOC(=O)c1cc2c([nH]c3ccccc32)c(CC)n1 [Compound 12, ethyl 1-ethyl-β-carboline-3-carboxylate]
IC50 (HepG2; [2]): > 3000 µM
IC50 (PLA-801; PLA-801, MTT, read-out: IC50): > 3000 µM
IC50 (Bel-7402; [3]): > 3000 µM
IC50 (BGC-823; [4]): > 3000 µM
IC50 (Hela; [5]): > 3000 µM
IC50 (Lovo; [6]): 1570 µM
IC50 (NIH3T3; [7]): > 3000 µM
melting point: 209 to 210 °C

CCCc1nc(C(=O)OCC)cc2c1[nH]c1ccccc12 [Compound 13, ethyl 1-propyl-β-carboline-3-carboxylate]
IC50 (HepG2; [2]): 1060 µM
IC50 (PLA-801; PLA-801, MTT, read-out: IC50): 670 µM
IC50 (Bel-7402; [3]): > 3000 µM
IC50 (BGC-823; [4]): > 3000 µM
IC50 (Hela; [5]): > 3000 µM
IC50 (Lovo; [6]): 740 µM
IC50 (NIH3T3; [7]): 750 µM
melting point: 194 to 195 °C

CCNC1(C(N)=O)C=C2C(=Nc3ccccc32)C=N1 (stereo not drawn) [Compound 19, 3-ethylamino-β-carboline-3-formamide]
IC50 (HepG2; [2]): 80 µM
IC50 (PLA-801; PLA-801, MTT, read-out: IC50): 140 µM
IC50 (Bel-7402; [3]): 160 µM
IC50 (BGC-823; [4]): 80 µM
IC50 (Hela; [5]): 90 µM
IC50 (Lovo; [6]): 100 µM
IC50 (NIH3T3; [7]): 200 µM
melting point: 233 to 236 °C

COC(=O)Nc1cc2c(cn1)[nH]c1ccccc12 [Compound 22, 3-[(methoxycarbonyl)amino]-β-carboline]
IC50 (HepG2; [2]): 230 µM
IC50 (PLA-801; PLA-801, MTT, read-out: IC50): 200 µM
IC50 (Bel-7402; [3]): 130 µM
IC50 (BGC-823; [4]): 210 µM
IC50 (Hela; [5]): 170 µM
IC50 (Lovo; [6]): 160 µM
IC50 (NIH3T3; [7]): 320 µM
melting point: 180 to 182 °C

CCOC(=O)Nc1cc2c(cn1)[nH]c1ccccc12 [Compound 23, 3-[(ethoxycarbonyl)amino]-β-carboline]
IC50 (HepG2; [2]): > 3000 µM
IC50 (PLA-801; PLA-801, MTT, read-out: IC50): 2160 µM
IC50 (Bel-7402; [3]): > 3000 µM
IC50 (BGC-823; [4]): > 3000 µM
IC50 (Hela; [5]): > 3000 µM
IC50 (Lovo; [6]): > 3000 µM
IC50 (NIH3T3; [7]): > 3000 µM
melting point: 221 to 223 °C

OCc1cc2c(cn1)[nH]c1ccccc12 [Compound 24, 3-hydroxymethyl-β-carboline]
IC50 (HepG2; [2]): 580 µM
IC50 (PLA-801; PLA-801, MTT, read-out: IC50): 1080 µM
IC50 (Bel-7402; [3]): 740 µM
IC50 (BGC-823; [4]): 780 µM
IC50 (Hela; [5]): 620 µM
IC50 (Lovo; [6]): 490 µM
IC50 (NIH3T3; [7]): 360 µM
melting point: 226 to 228 °C

CC(=O)COc1cc2c(cn1)[nH]c1ccccc12 [Compound 25, 3-acetylmethoxy-β-carboline]
IC50 (HepG2; [2]): 1130 µM
IC50 (PLA-801; PLA-801, MTT, read-out: IC50): 780 µM
IC50 (Bel-7402; [3]): 590 µM
IC50 (BGC-823; [4]): 640 µM
IC50 (Hela; [5]): 780 µM
IC50 (Lovo; [6]): 250 µM
IC50 (NIH3T3; [7]): 310 µM
melting point: 131 to 132 °C

CCCCn1c2ccccc2c2cc(C(=O)OC)ncc21 [Compound 28, methyl 9-n-butyl-β-carboline-3-carboxylate]
IC50 (HepG2; [8]): 460 µM
IC50 (PLA-801; [1]): 140 µM
IC50 (Bel-7402; [9]): 430 µM
IC50 (BGC-823; [10]): 310 µM
IC50 (Hela; [11]): 290 µM
IC50 (Lovo; [12]): 170 µM
IC50 (NIH3T3; [13]): 80 µM
melting point: 181 to 183 °C

COC(=O)c1cc2c3ccccc3n(Cc3ccccc3)c2cn1 [Compound 29, methyl 9-benzyl-β-carboline-3-carboxylate]
IC50 (HepG2; [8]): 1770 µM
IC50 (PLA-801; [1]): 480 µM
IC50 (Bel-7402; [9]): 60 µM
IC50 (BGC-823; [10]): 950 µM
IC50 (Hela; [11]): 120 µM
IC50 (Lovo; [12]): 310 µM
IC50 (NIH3T3; [13]): 360 µM
melting point: 187 to 188 °C
